Values after ≈ are worked out from the molar mass of the structure shown.
Test: Water solubility
Assay type: physicochemical

SMILES	water solubility
CC[C@@]1(O)C(=O)OCc2c1cc1n(c2=O)Cc2cc3cc(O)ccc3nc2-1 [Example 10HCPT, 10-hydroxycamptothecin]	~6 µM (≈ 2.19 µg/mL)
[O-]c1c(-c2ccccc2)cc(-[n+]2c(-c3ccccc3)cc(-c3ccccc3)cc2-c2ccccc2)cc1-c1ccccc1 [Reichardt's dye]	10^−6 M

— patent US20040086479A1, “Novel dendritic polymers, crosslinked gels, and their biomedical uses” (DUKE UNIVERSITY, priority 2001, published 2004)
